Data reported in article PMC11945486, “TAS1R2/TAS1R3 Single-Nucleotide Polymorphisms Affect Sweet Taste Receptor Activation by Sweeteners: The SWEET Project” (Nutrients, 2025).
No end group written: not given here.

Molecular target: T1, human TAS1R2-I486V/TAS1R3-WT (Homo sapiens, UniProt Q7RTX0+Q8TE23, I486V)
T1 construct: expressed in transfected cells; host or cells: HEK293T-Gα16gust44
T1 sequence (Q8TE23 20-839 I486V): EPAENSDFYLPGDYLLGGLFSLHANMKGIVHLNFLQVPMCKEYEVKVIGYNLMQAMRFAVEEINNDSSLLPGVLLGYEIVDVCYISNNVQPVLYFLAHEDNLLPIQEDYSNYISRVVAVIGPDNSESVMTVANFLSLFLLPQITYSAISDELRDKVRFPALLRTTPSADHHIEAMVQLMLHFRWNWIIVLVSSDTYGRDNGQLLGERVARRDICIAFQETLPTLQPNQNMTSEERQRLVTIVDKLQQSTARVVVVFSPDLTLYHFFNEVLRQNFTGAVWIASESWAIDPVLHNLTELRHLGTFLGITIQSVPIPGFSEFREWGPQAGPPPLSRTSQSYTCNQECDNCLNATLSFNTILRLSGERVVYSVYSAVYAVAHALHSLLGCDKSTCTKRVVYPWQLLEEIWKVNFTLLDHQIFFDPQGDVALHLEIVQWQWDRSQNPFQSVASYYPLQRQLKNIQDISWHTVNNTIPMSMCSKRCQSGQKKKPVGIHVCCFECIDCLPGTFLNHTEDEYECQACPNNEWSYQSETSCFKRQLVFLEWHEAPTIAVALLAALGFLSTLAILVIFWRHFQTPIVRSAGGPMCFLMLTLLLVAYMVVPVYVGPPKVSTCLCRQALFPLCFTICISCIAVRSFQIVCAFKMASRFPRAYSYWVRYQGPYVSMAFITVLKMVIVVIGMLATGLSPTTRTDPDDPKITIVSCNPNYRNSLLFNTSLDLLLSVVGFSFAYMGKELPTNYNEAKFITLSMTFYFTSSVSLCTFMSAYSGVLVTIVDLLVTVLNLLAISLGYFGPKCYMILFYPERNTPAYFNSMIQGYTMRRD
T1 sequence (Q7RTX0 21-852): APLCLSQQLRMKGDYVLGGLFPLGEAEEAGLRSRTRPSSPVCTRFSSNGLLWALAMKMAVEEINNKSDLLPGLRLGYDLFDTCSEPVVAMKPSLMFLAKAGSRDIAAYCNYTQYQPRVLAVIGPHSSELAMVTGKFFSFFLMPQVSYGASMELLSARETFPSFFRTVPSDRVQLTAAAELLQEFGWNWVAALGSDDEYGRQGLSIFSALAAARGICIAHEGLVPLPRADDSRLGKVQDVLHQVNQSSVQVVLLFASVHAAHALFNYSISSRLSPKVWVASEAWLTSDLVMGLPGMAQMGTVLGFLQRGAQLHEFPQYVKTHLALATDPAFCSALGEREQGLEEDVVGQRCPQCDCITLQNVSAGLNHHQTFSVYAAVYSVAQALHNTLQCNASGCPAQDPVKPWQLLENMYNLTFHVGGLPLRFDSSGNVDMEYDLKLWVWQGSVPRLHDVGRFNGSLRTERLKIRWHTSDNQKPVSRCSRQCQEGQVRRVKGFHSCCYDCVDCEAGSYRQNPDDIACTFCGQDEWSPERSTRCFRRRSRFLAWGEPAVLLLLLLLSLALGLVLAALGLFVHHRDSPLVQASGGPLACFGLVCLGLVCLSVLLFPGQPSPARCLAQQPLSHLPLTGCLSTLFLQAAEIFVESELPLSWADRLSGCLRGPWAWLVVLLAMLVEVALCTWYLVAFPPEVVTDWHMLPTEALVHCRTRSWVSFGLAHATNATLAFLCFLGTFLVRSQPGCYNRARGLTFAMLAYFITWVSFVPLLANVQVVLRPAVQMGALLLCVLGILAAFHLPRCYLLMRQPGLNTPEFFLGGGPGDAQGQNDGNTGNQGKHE
Assay: Calcium mobilisation assay, TAS1R2 variant I486V with TAS1R3-WT
Type: cell-based
Settings: for Max ΔF/F0: maximal signal amplitude
Source text: The coding sequences for TAS1R2 and TAS1R3 were commercially synthesised, and the human codon was optimised for expression in human cells. The coding sequences of human TAS1R2 and TAS1R3 were subcloned and inserted into the mammalian expression vectors pcDNA6/myc-HisA and pcDNA4/myc-HisA (Invitrogen; Thermo Fisher Scientific; Illkirch, France) between the EcoRI and NotI restriction sites, generating the plasmids pcDNA6-TAS1R2 and pcDNA4-TAS1R3, respectively. To increase protein expression in mammalian cells, an upstream start codon was used, which was a sequence called MAX, corresponding to the QBI SP163 element also described in pcDNA4-HisMax (Invitrogen; Thermo Fisher Scientific; Illkirch, France). To measure the expression level of the receptor by immunohistochemistry, we used the FLAG sequence ([…]) in the C-terminal position, which encodes the FLAG tag epitope. SNP variants of TAS1R2 and TAS1R3 were constructed based on […], respectively, using site-directed mutagenesis (Genewiz; Leipzig, Germany).
The HEK293T cells were kindly provided by Jay P. Slack (Givaudan Flavors Corporation; Cincinnati, OH, USA). HEK293T cells stably transfected with Gα16gust44 [43, 67] were seeded in poly-D-lysine-coated clear-bottom black 96-well plates (0.35 × 10^5 cells/well) in high-glucose DMEM supplemented with 2 mM GlutaMAX, 10% dialysed foetal bovine serum with penicillin/streptomycin and G418 (400 μg/mL) at 37 °C and 6.3% CO2 in a humidified atmosphere as previously reported. […] As a negative control, HEK293T cells were mock-transfected with the empty expression vector. After a further 24 h of incubation, the HEK293T cells were washed with C1 buffer (130 mM NaCl, 5 mM KCl, 10 mM HEPES pH 7.4 and 2 mM CaCl2). The 96-well plates containing the cells were then stimulated with sweet-tasting compounds. […] Different concentration ranges were tested depending on the sweet compound injected. The Ca^2+ changes were expressed as fractional changes in fluorescent light intensity: ΔF/F = (F − F0)/F0, where F was the fluorescent light intensity at each point, and F0 was the value of emitted fluorescent light prior to stimulus application. To calculate dose–response relationships, the changes in fluorescence upon stimulus application were averaged, mock-subtracted and baseline-corrected. The dose–response data obtained were adjusted using a 4-parameter logistic equation. The half-maximal effective concentrations (EC50 values) and maximal signal amplitudes were calculated using SigmaPlot software (version 15.0) (Systat Software; San Jose, CA, USA).
For in vitro calcium mobilisation assay performed on hTAS1R2-SNPs, hTAS1R3-SNPs and mTAS1R3-I60T, 6 to 7 concentrations were tested for each sweet compound, plus buffer alone. All concentration–receptor combinations were measured in duplicate, and each experiment was repeated at least 4 times (8 wells/concentration). Results were expressed for each concentration as ΔF/F mean ± SEM and represented as dose–response curves.

## C=C(C)[C@@H]1CC=C(/C=N/O)CC1 [Perillartine, perillartine]
  EC50: 17.7 ± 1.2 µM
  R1 = Variant EC50/WT EC50: 1.0
  Max ΔF/F0: 1.49 ± 0.04

## O=S(=O)(O)NC1CCCCC1 [Cyclamate, cyclamate]
  EC50: 1880 ± 36 µM

## C=C1C[C@@]23CC[C@H]4[C@@](C)(CCC[C@@]4(C)C(=O)O[C@@H]4O[C@H](CO)[C@@H](O)[C@H](O[C@@H]5O[C@H](CO)[C@@H](O)[C@H](O)[C@H]5O)[C@H]4O[C@@H]4O[C@H](CO)[C@@H](O)[C@H](O)[C@H]4O)[C@@H]2CC[C@]1(O[C@@H]1O[C@H](CO)[C@@H](O)[C@H](O[C@@H]2O[C@H](CO)[C@@H](O)[C@H](O)[C@H]2O)[C@H]1O[C@@H]1O[C@H](CO)[C@@H](O)[C@H](O)[C@H]1O)C3 [Rebaudioside M, rebaudioside M]
  EC50: 17.6 ± 0.6 µM
  R1 = Variant EC50/WT EC50: 1.0
  Max ΔF/F0: 1.20 ± 0.01

## OC[C@H]1O[C@H](O[C@]2(CCl)O[C@H](CCl)[C@@H](O)[C@@H]2O)[C@H](O)[C@@H](O)[C@H]1Cl [Sucralose]
  EC50: 54 ± 5 µM
  R1 = Variant EC50/WT EC50: 0.6
  Max ΔF/F0: 0.69 ± 0.02

## CC1=CC(=O)NS(=O)(=O)O1 [Acesulfame K, acesulfame K]
  EC50: 778 ± 108 µM
  R1 = Variant EC50/WT EC50: 1.1
  Max ΔF/F0: 0.46 ± 0.03

## brazzein (QDKCKKVYENYPVSKCQLANQCNYDCKLDKHARSGECFYDEKRNLQCICDYCEY; ends and bridges not checked; cysteine pairing not given here; UniProt P56552 1-54, looked up) [sweet-tasting protein obtained by recombinant production using the yeast Pichia pastoris]
  R1 = Variant EC50/WT EC50: 1.1
  Max ΔF/F0: 1.19 ± 0.03

## thaumatin
  R1 = Variant EC50/WT EC50: 1.4
  Max ΔF/F0: 1.21 ± 0.02

## COC(=O)[C@H](Cc1ccccc1)NC(=O)[C@H](CC(=O)O)NCCC(C)(C)C [Neotame]
  EC50: 0.71 ± 0.06 µM
  R1 = Variant EC50/WT EC50: 0.8
  Max ΔF/F0: 0.61 ± 0.01

## C[C@H](CC[C@@H](O[C@@H]1O[C@H](CO[C@@H]2O[C@H](CO)[C@@H](O)[C@H](O)[C@H]2O)[C@@H](O)[C@H](O)[C@H]1O[C@@H]1O[C@H](CO)[C@@H](O)[C@H](O)[C@H]1O)C(C)(C)O)[C@H]1CC[C@@]2(C)[C@@H]3CC=C4[C@@H](CC[C@H](O[C@@H]5O[C@H](CO[C@@H]6O[C@H](CO)[C@@H](O)[C@H](O)[C@H]6O)[C@@H](O)[C@H](O)[C@H]5O)C4(C)C)[C@]3(C)[C@H](O)C[C@]12C [Mogroside V, mogroside V]
  EC50: 20.1 ± 0.9 µM
  R1 = Variant EC50/WT EC50: 1.2
  Max ΔF/F0: 1.39 ± 0.02

## COc1ccc(CCC(=O)c2c(O)cc(O[C@@H]3O[C@H](CO)[C@@H](O)[C@H](O)[C@H]3O[C@@H]3O[C@@H](C)[C@H](O)[C@@H](O)[C@H]3O)cc2O)cc1O [NHDC, neohesperidin dihydrochalcone]
  EC50: 92.6 ± 5.2 µM
  R1 = Variant EC50/WT EC50: 1.2
  Max ΔF/F0: 0.92 ± 0.02

B1: thaumatin (protein)
chain: ATFEIVNRCSYTVWAAASKGDAALDAGGRQLNSGESWTINVEPGTKGGKIWARTDCYFDDSGSGICKTGDCGGLLRCKRFGRPPTTLAEFSLNQYGKDYIDISNIKGFNVPMDFSPTTRGCRGVRCAADIVGQCPAKLKAPGGGCNDACTVFQTSEYCCTTGKCGPTEYSRFFKRLCPDAFSYVLDKPTTVTCPGSSNYRVTFCPTA
modifications: Eight disulfides
notes: sweet-tasting plant protein, E957
  EC50: 10.5 ± 0.3 µM
